The term pIC50 denotes −log10 of the IC50, conventionally taken in molar units.

pIC50: −log10 of the molar value.

29 compounds from patent US9012651B2, “TRPV3 modulators” (AbbVie Inc., priority 2011, dated 2015) can be followed below.

Chain of human TRPV3 receptors (Q8NET8 whole entry): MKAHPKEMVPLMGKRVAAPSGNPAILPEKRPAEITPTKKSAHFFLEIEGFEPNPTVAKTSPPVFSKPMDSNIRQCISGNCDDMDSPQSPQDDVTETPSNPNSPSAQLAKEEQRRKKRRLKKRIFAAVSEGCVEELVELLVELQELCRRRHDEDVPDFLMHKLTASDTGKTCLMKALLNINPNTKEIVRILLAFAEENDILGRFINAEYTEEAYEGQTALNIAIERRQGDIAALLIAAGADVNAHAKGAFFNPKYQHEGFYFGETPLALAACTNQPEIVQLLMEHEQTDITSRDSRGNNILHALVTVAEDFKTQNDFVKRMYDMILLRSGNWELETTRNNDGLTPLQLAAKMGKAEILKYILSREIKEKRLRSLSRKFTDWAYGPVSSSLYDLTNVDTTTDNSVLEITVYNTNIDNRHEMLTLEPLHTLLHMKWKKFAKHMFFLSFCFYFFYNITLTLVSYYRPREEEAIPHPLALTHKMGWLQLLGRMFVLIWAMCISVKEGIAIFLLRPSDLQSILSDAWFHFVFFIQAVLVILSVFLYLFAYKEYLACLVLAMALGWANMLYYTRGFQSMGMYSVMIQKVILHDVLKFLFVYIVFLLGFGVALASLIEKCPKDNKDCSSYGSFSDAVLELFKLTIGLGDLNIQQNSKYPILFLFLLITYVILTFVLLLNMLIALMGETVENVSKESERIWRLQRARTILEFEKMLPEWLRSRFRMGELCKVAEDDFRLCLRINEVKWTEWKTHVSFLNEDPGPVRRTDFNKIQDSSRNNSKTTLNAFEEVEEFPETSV

The experiment has as its target human TRPV3 receptors (Homo sapiens (Human), UniProt Q8NET8). Nature of the experiment: Calcium flux assay (FLIPR TETRA), inhibition of the 2-APB response. It is filed as cell-based. To be noted: recombinant HEK293 cells stably expressing TRPV3, Calcium-4 dye, 2-APB at its EC80. As to the method: (i) In Vitro Methods-Calcium Flux Assays:
Experiments were conducted using the FLIPR^TETRA®. On the day prior to the experiment, recombinant HEK293 cells that stably express human and mouse TRPV3 were removed from tissue culture flasks and plated in growth medium at 20,000 cells/well into black-walled clear-bottom 384-well Biocoat™ poly-D-lysine assay plates (BD Biosciences, Bedford, Mass.) using a Multidrop® dispenser (ThermoScientific, Waltham, Mass.). […] Cells were incubated for 90-120 minutes in the dark. Compounds were dissolved in DMSO to prepare a 10 mM stock solution. The intensity of the fluorescence was captured and digitally transferred to an interfaced PC. The peak increase in fluorescence over baseline (relative fluorescence units) was calculated and expressed as the percentage of the maximal 2-APB (2-aminoethoxyldiphenyl borate) response (in the absence of compound).
For orientation: Calcium assays in cells follow changes in intracellular calcium, usually with a dye or a luminescent sensor.
Consider `CC[C@H](C)[C@@H](CO)NCc1cccc(-c2ccc(C(F)(F)F)cc2)n1` [Example 2, (2S,3S)-3-methyl-2-[({6-[4-(trifluoromethyl)phenyl]pyridin-2-yl}methyl)amino]pentan-1-ol], for which the pIC50 is 5.42.
With `CC(C)[C@@H](CO)NCc1cccc(-c2ccc(C(F)(F)F)cc2)n1` [Example 3, (2S)-3-methyl-2-[({6-[4-(trifluoromethyl)phenyl]pyridin-2-yl}methyl)amino]butan-1-ol], the pIC50 is 5.03.
For the compound `CC(C)(CO)CNCc1cccc(-c2ccc(C(F)(F)F)cc2)n1` [Example 8, 2,2-dimethyl-3-[({6-[4-(trifluoromethyl)phenyl]pyridin-2-yl}methyl)amino]propan-1-ol], the pIC50 is 5.59.
Turning to `OC[C@@H]1[C@@H]2CC[C@@H](C2)[C@@H]1NCc1cccc(-c2ccc(C(F)(F)F)cc2)n1` [Example 9, {(1R,2R,3S,4S)-3-[({6-[4-(trifluoromethyl)phenyl]pyridin-2-yl}methyl)amino]bicyclo[2.2.1]heptan-2-yl}methanol], the pIC50 is 5.44.
The result for `CC(C)[C@H](CO)NCc1cccc(N2CCCC2)n1` [Example 10, (2R)-3-methyl-2-({[6-(pyrrolidin-1-yl)pyridin-2-yl]methyl}amino)butan-1-ol] reads 5.42; that for `CC(C)[C@H](CO)NCc1cccc(N2CCCCC2)n1` [Example 11, (2R)-3-methyl-2-({[6-(piperidin-1-yl)pyridin-2-yl]methyl}amino)butan-1-ol], 5.71.
Take `CC(C)[C@H](CO)NCc1cccc(OCc2ccccc2)n1` [Example 12, (2R)-2-({[6-(benzyloxy)pyridin-2-yl]methyl}amino)-3-methylbutan-1-ol]: the pIC50 was 6.04.
Take `CC(C)[C@H](CO)NCc1nc(-c2ccccc2F)ccc1F` [Example 13, (2R)-2-({[3-fluoro-6-(2-fluorophenyl)pyridin-2-yl]methyl}amino)-3-methylbutan-1-ol]: the pIC50 was 5.95.
As for `CC(C)[C@H](CO)NCc1nc(-c2cccc(F)c2)ccc1F` [Example 14, (2R)-2-({[3-fluoro-6-(3-fluorophenyl)pyridin-2-yl]methyl}amino)-3-methylbutan-1-ol], the pIC50 was 6.09.
In the case of `CC(C)[C@H](CO)NCc1nc(-c2cccc(Cl)c2)ccc1F` [Example 15, (2R)-2-({[6-(3-chlorophenyl)-3-fluoropyridin-2-yl]methyl}amino)-3-methylbutan-1-ol], the pIC50 was 5.74.
For the compound `CC(C)[C@H](CO)NCc1nc(-c2cccc(C(F)(F)F)c2)ccc1F` [Example 16, (2R)-2-[({3-fluoro-6-[3-(trifluoromethyl)phenyl]pyridin-2-yl}methyl)amino]-3-methylbutan-1-ol], the pIC50 was 5.95.
Turning to `CC(C)[C@H](CO)NCc1nc(-c2ccc(C(F)(F)F)cc2)ccc1F` [Example 17, (2R)-2-[({3-fluoro-6-[4-(trifluoromethyl)phenyl]pyridin-2-yl}methyl)amino]-3-methylbutan-1-ol], the pIC50 was 6.70.
On to `CC(C)[C@H](CO)NCc1nc(-c2cccc(OC(F)(F)F)c2)ccc1F` [Example 18, (2R)-2-[({3-fluoro-6-[3-(trifluoromethoxy)phenyl]pyridin-2-yl}methyl)amino]-3-methylbutan-1-ol], for which the pIC50 was 5.95.
For `CC(C)[C@H](CO)NCc1nc(-c2ccc(OC(F)(F)F)cc2)ccc1F` [Example 19, (2R)-2-[({3-fluoro-6-[4-(trifluoromethoxy)phenyl]pyridin-2-yl}methyl)amino]-3-methylbutan-1-ol], the pIC50 was 6.64.
On to `CC(C)[C@H](CO)NCc1nc(-c2ccc(Cl)c(Cl)c2)ccc1F` [Example 20, (2R)-2-({[6-(3,4-dichlorophenyl)-3-fluoropyridin-2-yl]methyl}amino)-3-methylbutan-1-ol], for which the pIC50 is 5.86.
Consider `CC(C)[C@H](CO)NCc1nc(-c2cc(Cl)cc(Cl)c2)ccc1F` [Example 21, (2R)-2-({[6-(3,5-dichlorophenyl)-3-fluoropyridin-2-yl]methyl}amino)-3-methylbutan-1-ol], for which the pIC50 is 5.48.
Take `CC(C)[C@H](CO)NCc1nc(-c2cc(C(F)(F)F)cc(C(F)(F)F)c2)ccc1F` [Example 22, (2R)-2-[({6-[3,5-bis(trifluoromethyl)phenyl]-3-fluoropyridin-2-yl}methyl)amino]-3-methylbutan-1-ol]: the pIC50 is 5.89.
In the case of `CC(C)Oc1ccc(F)c(-c2ccc(F)c(CN[C@@H](CO)C(C)C)n2)c1` [Example 23, (2R)-2-[({3-fluoro-6-[2-fluoro-5-(propan-2-yloxy)phenyl]pyridin-2-yl}methyl)amino]-3-methylbutan-1-ol], the pIC50 is 6.15.
For `CC(C)Oc1cccc(-c2ccc(F)c(CN[C@@H](CO)C(C)C)n2)c1` [Example 24, (2R)-2-[({3-fluoro-6-[3-(propan-2-yloxy)phenyl]pyridin-2-yl}methyl)amino]-3-methylbutan-1-ol], the pIC50 was 6.12.
In the case of `CC(C)Oc1ccc(-c2ccc(F)c(CN[C@@H](CO)C(C)C)n2)cc1F` [Example 25, (2R)-2-[({3-fluoro-6-[3-fluoro-4-(propan-2-yloxy)phenyl]pyridin-2-yl}methyl)amino]-3-methylbutan-1-ol], the pIC50 was 6.19.
With `CC(C)[C@H](CO)NCc1cccc(OC(C)(C)C)n1` [Example 26], the negative-log IC50 (pIC50) is 5.39.
On to `CC(C)[C@H](CO)NCc1nc(-c2ccc(F)cc2)ccc1F` [Example 27, (2R)-2-({[3-fluoro-6-(4-fluorophenyl)pyridin-2-yl]methyl}amino)-3-methylbutan-1-ol], for which the pIC50 is 6.49.
With `OC[C@H](NCc1nc(-c2ccc(C(F)(F)F)cc2)ccc1F)C1CC1` [Example 29, (2R)-2-cyclopropyl-2-[({3-fluoro-6-[4-(trifluoromethyl)phenyl]pyridin-2-yl}methyl)amino]ethano 1], the pIC50 was 6.39.
On to `CC(C)[C@@H](CO)NCc1nc(-c2ccc(C(F)(F)F)cc2)ccc1F` [Example 30, (2S)-2-[({3-fluoro-6-[4-(trifluoromethyl)phenyl]pyridin-2-yl}methyl)amino]-3-methylbutan-1-ol], for which the pIC50 was < 4.70.
For `CC(C)[C@H](CO)NCc1nc(-c2ccnc(C(F)(F)F)c2)ccc1F` [Example 31, (2R)-2-({[5-fluoro-2′-(trifluoromethyl)-2,4′-bipyridin-6-yl]methyl}amino)-3-methylbutan-1-ol], the pIC50 was 5.66.
On to `CC(C)[C@H](CO)NCc1nccc(-c2ccc(F)cc2)n1` [Example 32, (2R)-2-({[4-(4-fluorophenyl)pyrimidin-2-yl]methyl}amino)-3-methylbutan-1-ol], for which the pIC50 was 4.92.
The result for `CC(C)[C@H](CO)NCc1ccnc(-c2ccc(Cl)cc2)n1` [Example 34, (2R)-2-({[2-(4-chlorophenyl)pyrimidin-4-yl]methyl}amino)-3-methylbutan-1-ol] reads 5.86; that for `CC(C)[C@@H](CO)NCc1nc(-c2ccc(C(F)(F)F)nc2)ccc1F` [Example 35, (2S)-2-({[5-fluoro-6′-(trifluoromethyl)-2,3′-bipyridin-6-yl]methyl}amino)-3-methylbutan-1-ol], < 4.70.
The result for `CC(C)[C@H](CO)NCc1nc(-c2ccc(F)cn2)ccc1F` [Example 36, (2R)-2-{[(5,5′-difluoro-2,2′-bipyridin-6-yl)methyl]amino}-3-methylbutan-1-ol] reads 6.02.
